Data from PMC4995014, “Identification of ABC Transporter Interaction of a Novel Cyanoquinoline Radiotracer and Implications for Tumour Imaging by Positron Emission Tomography” (PLoS ONE, 2016).

Assays:
3T3 cells [1] = assay: SRB cell viability assay in 3T3 cells; format: cell-based; details: Mus musculus, NIH3T3, 72 h
Protocol: (§1) Cell viability by the sulforhodamine B (SRB) assay was used to assess cell growth and cytotoxicity of test compounds [29]. Cells were seeded at densities of 3,500 to 5,000 cells per well in 96 well plates overnight and pre-treated for 1 h with ABC transporter modulators: 10 μM fumitremorgin C (FTC; in MCF7MX and MCF7 cells), or 0.3 μM of zosuquidar (in 3T3 and 3T3-MDR1). Cells were then treated with test compounds for 72 h, at 37°C. After drug treatment, cells were fixed by addition of 50% trichloroacetic acid (TCA), and the plates washed and dried to allow staining with 0.4% solution of sulforhodamine B (Sigma) in 1% acetic acid for 30 minutes. Excess dye was removed upon washing with 1% acetic acid. Plates were dried and bound protein was solubilised upon addition of 150 μL of 10 mM Tris base buffer. Absorbance was measured at 540 nm using Thermo Multiskan-Ex plate reader. Cell viability versus compound concentration curves were plotted as a percentage of control cells. The concentration of drug that gave 50% inhibition in cell growth (GI50) was extrapolated from these curves using the sigmoid curve fit with variable slope in Prism (GraphPad Prism version 5.01, GraphPad Software, San Diego California USA). Three to six replicate wells were used for each drug concentration and experiments were carried out on three separate occasions for each compound.

MCF7 cells [2] = assay: SRB cell viability assay in MCF7 cells; format: cell-based; details: Homo sapiens, 72 h
Protocol: as §1

3T3-MDR1 cells [3] = assay: SRB cell viability assay in 3T3-MDR1 cells (ABCB1 expressing); format: cell-based; details: GI50 3T3-MDR1 over GI50 3T3, without zosuquidar
Protocol: as §1

ABCB1 (MDR1) = assay: as above; format: cell-based; details: mouse, 3T3-MDR1 cells (ABCB1 expressing), 72 h, SRB
Protocol: as §1

MCF7MX cells [4] = assay: SRB cell viability assay in MCF7MX cells (ABCG2 overexpressing); format: cell-based, human; details: for fold increase in GI50 in the ABCG2 overexpressing cell line: GI50 MCF7MX over GI50 MCF7, without FTC; for GI50: Homo sapiens, MCF7/MX, 72 h, SRB
Protocol: as §1

Caco2 transwell assay = format: in vitro ADME, human; details: human; for efflux ratio at 120 min: Caco-2, no inhibitor, 10 μM cyanoquinoline or 50 μM vinblastine, read-out: efflux ratio (Papp B-A / Papp A-B)
Protocol: The caco2 transwell assay was performed to assess permeability. Cells were seeded at a density of 60,000 cells per well in 24 well transwell plates (Millipore, Billerica, Massachutsetts, USA), and maintained in DMEM supplemented with […] glucose (20% FBS, 1% penicillin/streptomycin, 1% glutamine) for 21 days at 37°C in 5% CO2. After 21 days the cells differentiate into enterocytes and express all three MDR proteins, ABCB1 and ABCG2 at the apical side and ABCC1 on the basal side. On day 21, cells were washed three times with Hank's Balanced Salt Solution (HBSS) (Fisher scientific, Loughborough, UK) and the trans-epithelial electric resistance (TERR) was measured using an Epithelial Voltohmmeter (EVOM) (World Precision Instruments, Sarasota, USA); only transwells with TERR of 400 Ω/cm^2 or above were used for the experiment. Cells were treated either at the apical (n = 3) or basal (n = 3) side of the transwell by addition of 10 μM of cyanoquinoline compound or 50 μM vinblastine prepared in a volume of 400 μL HBSS (compound added to apical well) or 800 μL of HBSS (added to basal well). When transport inhibitors FTC (10 μM) or zosuquidar (0.3 μM) were used, they were added to both the apical and basal wells 1 h prior to drug treatment. After 1 h pre-treatment the medium was removed and cells were treated with the compounds prepared in HBSS containing FTC or Zosuquidar.
Plates were incubated in shaker incubator at 37°C and 60 rpm for 120 min. After incubation, 200 μL aliquots from the apical and the basal wells were collected and analysed using high performance liquid chromatography (HPLC). Samples were run on a Millipore Waters HPLC system which included a 717 plus autosampler and 2487 dual wavelength absorbance detector system. The stationary phase comprised of a Phenomenex Luna C18 reverse phase column (150 X 4.6 mm; 5 μm particle size). The mobile phase comprised water (0.1% TFA) and acetonitrile (0.1% TFA) (80:20 v/v) at a flow rate of 1 mL/min for all compounds except vinblastine. For vinblastine, the stationary phase comprised a Supelcosil LC-ABZ reverse phase column (5 × 4.6 mm; 5 μm particle size). The mobile phase comprised water (0.1% formic acid) and methanol (90:10 to 10:90 v/v gradient over 20 min). Peak areas corresponding to the compounds of interest were recorded. Using standard curves the areas under the curve were converted into concentrations of compound. The permeability coefficient (Papp) was calculated using the following equation [30]: Papp = (dQ/dt)/A C0, where A is the surface area of the transwell membrane in cm^2 (= 0.33 cm^2), C0 is the drug concentration in the donor chamber at time t = 0 and dQ/dt is the rate of transfer of the compound to the receiver chamber, determined from the slope of the graph concentration (dQ) versus time (dt). Papp values corresponding to absorption and secretion were assessed and used to calculate efflux ratio. Efflux ratio =(Papp B−A)/(Papp A−B) Where Papp A-B = Papp absorption and Papp B-A = Papp secretion.
The integrity of the caco2 cell membrane was assessed for each well following the experiment by addition of a 100 μM solution of […] (Sigma) in HBSS to the apical side of the plate. The plates were placed in the shaker incubator for 1 h at 37°C and 60 rpm. Samples from the basal wells were transferred into a 96 well plate and the levels of […] were assessed by measuring with an excitation of 450 nm and an emission of 540 nm using the PerkinElmer Wallac 1420 counter.

3T3 cells [5] = assay: Cell uptake assay in 3T3 cells; format: cell-based; details: 1 h incubation with 0.22 MBq
Protocol: (§2) [^18F]FED6 and [^18F]FED20 were synthesised as previously reported. To increase specific radioactivity of [^18F]FED20, we modified the synthesis by decreasing the amount of alkyne precursor from 1 mg down to 0.5 mg. While this had the desired effect of increasing the specific activity from 7.3 GBq/μmol up to 52 GBq/μmol, the conversion of the alkyne to the triazole product dropped from > 95% down to 45%. Cells were seeded in 6 well plates and [^18F]FED6 (0.22 MBq) or [^18F]FED20 (0.55 MBq or 0.74 MBq) added to each well and incubated at 37°C for 1 h. Media were then removed and cells were washed twice with PBS. The cells were trypsinised and centrifuged for 3 minutes at 2000 rpm to obtain a pellet. The cell pellet was washed once with PBS and resuspended in 200 μL of RIPA buffer. Cell lysates were transferred to gamma counting tubes and the radioactivity in the pellet was measured on a Packard Cobra II gamma counter, (Perkin-Elmer, Waltham, Massachusetts, USA). Protein concentrations of samples were evaluated using Pierce® BCA Protein Assay Kit (Thermo Scientific, Waltham, Massachusetts, USA). Data were expressed as background- and decay-corrected counts per minute (CCPMA) per μg of cellular protein.

H358 cells = assay: Cell uptake assay in H358 cells; format: cell-based; details: 1 h incubation with 0.22 MBq
Protocol: as §2

MCF7MX cells [6] = assay: Cell uptake assay in MCF7MX cells; format: cell-based, human
Protocol: SiRNA transfections were carried out using ON TARGET plus-SMARTpool siRNA or non-targeting siRNA (Dharmacon, Lafayette, Louisianna, USA); ABCG2, L-009924-00-0005 and scramble (non-targeting) D-001810-10-05. Lipofectamine RNAiMAX (Invitrogen UK) was used as the transfection reagent and was prepared as indicated on the product protocol. Cells were seeded in black 96 well plates in antibiotic free media. On the day of transfection, siRNA and Lipofectamine were separately diluted in opti-MEM media, mixed in a 1 to 1 ratio and incubated at room temperature for 20 min; the siRNA-Lipofectamine complexes were then added to the cells. Fresh media containing 1% penicillin streptomycin was added to the cells after 24 h followed by Hoechst fluorescent assays at 72 h.
as §2

3T3-MDR1 cells [7] = assay: Cell uptake assay in 3T3-MDR1 cells; format: cell-based
Protocol: as §2

MCF7 cells [8] = assay: Cell uptake assay in MCF7 cells; format: cell-based, human; details: 1 h incubation with 0.22 MBq
Protocol: as §2

[9] = pre-treatment with 0.3 μM zosuquidar
[10] = 1 h pre-treatment with 10 μM FTC
[11] = with zosuquidar 0.3 μM (1 h pre-treatment), pre-treatment with 0.3 μM zosuquidar

Row | Compound | GI50 (3T3 cells [1]; [9]) | GI50 (3T3 cells [1]; without zosuquidar) | GI50 (MCF7 cells [2]; [10]) | GI50 (MCF7 cells [2]; without FTC) | fold increase in GI50 in the ABCB1 overexpressing cell line (3T3-MDR1 cells [3]) | GI50 at 72 h (ABCB1 (MDR1); [11]) | GI50 at 72 h (ABCB1 (MDR1); without zosuquidar) | fold increase in GI50 in the ABCG2 overexpressing cell line (MCF7MX cells [4]) | GI50 (MCF7MX cells [4]; [10]) | GI50 (MCF7MX cells [4]; without FTC) | efflux ratio at 120 min (Caco2 transwell assay) | other results
1 | CCOc1cc2ncc(C#N)c(Nc3ccc(F)c(Cl)c3)c2cc1NC(=O)/C=C/CN(C)C [EKB-569, pelitinib, reference compound] | 1.15 ± 0.6 µM | 1.06 ± 0.6 µM | 2.55 ± 0.04 µM | 2.61 ± 0.07 µM | 5.4 fold | 2.7 ± 0.8 µM | 5.75 ± 0.7 µM | 1.7 fold | 1.54 ± 0.06 µM | 4.28 ± 0.23 µM | > 3 | –
2 | CCOc1cc2ncc(C#N)c(Nc3ccc(F)c(Cl)c3)c2cc1NC(=O)/C=C/CNCc1cn(CC[18F])nn1 [[^18F]FED6, [^18F](2E)-N-{4-[(3-chloro-4-fluorophenyl)amino]-3-cyano-7-ethoxyquinolin-6-yl}-4-({[1-(2-fluoroethyl)-1H-1,2,3-triazol-4-yl]methyl}amino)-but-2-enamide] | – | – | – | – | – | – | – | – | – | – | – | protein normalised uptake in 3T3 cells (3T3 cells [5]): 22 CCPMA/μg of protein; protein normalised uptake in H358 cells (H358 cells): 86 CCPMA/μg of protein; uptake in MCF7MX cells following ABCG2 siRNA (MCF7MX cells [6]; 25 nM ABCG2 siRNA 72 h, 1 h incubation with 0.22 MBq): 3.5 CCPMA/μg protein; uptake in scramble siRNA transfected MCF7MX cells (MCF7MX cells [6]; 25 nM scrambled siRNA 72 h, 1 h incubation with 0.22 MBq): 0.6 CCPMA/μg protein; fold increase of uptake in MCF7MX cells following FTC pre-treatment (MCF7MX cells [6]; 10 μM FTC for 1 h): 4 fold; uptake in MCF7MX cells following FTC pre-treatment (MCF7MX cells [6]; 10 μM FTC for 1 h, 1 h incubation with 0.22 MBq): 6 CCPMA/μg protein; uptake in MCF7MX cells following gefitinib pre-treatment (MCF7MX cells [6]; 10 μM gefitinib for 1 h, 1 h incubation with 0.22 MBq): 6.3 CCPMA/μg protein; protein normalised uptake in MCF7MX cells (MCF7MX cells [6]; 1 h incubation with 0.22 MBq): 7.7 CCPMA/μg of protein; fold increase of uptake in 3T3-MDR1 cells following zosuquidar pre-treatment (3T3-MDR1 cells [7]; 0.3 μM zosuquidar for 1 h): 19 fold; protein normalised uptake in 3T3-MDR1 cells (3T3-MDR1 cells [7]; 1 h incubation with 0.22 MBq): 0.7 CCPMA/μg of protein; protein normalised uptake in MCF7 cells (MCF7 cells [8]): 81 CCPMA/μg of protein
3 | CC[C@]1(O)C[C@@H]2CN(CCc3c([nH]c4ccccc34)[C@@](C(=O)OC)(c3cc4c(cc3OC)N(C)[C@H]3[C@@](O)(C(=O)OC)[C@H](OC(C)=O)[C@]5(CC)C=CCN6CC[C@]43[C@@H]65)C2)C1 [Vinblastine, reference compound] | 0.0015 ± 0.0012 µM | 0.0018 ± 0.001 µM | 0.00536 ± 0.00063 µM | 0.00512 ± 0.00074 µM | – | 0.0011 ± 0.0011 µM | 0.219 ± 0.0008 µM | – | 0.00266 ± 0.00066 µM | 0.00208 ± 0.00041 µM | – | efflux ratio at 120 min, 50 μM (Caco2 transwell assay; Caco-2, pre-treatment with zosuquidar, read-out: efflux (permeability) ratio after pre-treatment with zosuquidar): 1.7
4 | CCOc1cc2ncc(C#N)c(Nc3ccc(F)c(Cl)c3)c2cc1N [FED14] | 14.8 ± 0.7 µM | 14.8 ± 0.7 µM | 11.2 ± 1.11 µM | 11.4 ± 1.36 µM | – | 12.2 ± 0.6 µM | 8.7 ± 0.7 µM | – | 10.1 ± 0.73 µM | 6.53 ± 0.34 µM | < 1 | –
5 | CCOc1cc2ncc(C#N)c(Nc3ccc(F)c(Cl)c3)c2cc1NC(=O)/C=C/CNC [FED2] | 4.5 ± 0.8 µM | 7 ± 1.2 µM | 14.8 ± 8.54 µM | 14.9 ± 8.6 µM | 5.1 fold | 5.9 ± 0.6 µM | 36 ± 1.1 µM | 3.2 fold | 10.3 ± 5.95 µM | 27.6 ± 15.9 µM | > 3 | –
6 | O=C1c2c(O)ccc(O)c2C(=O)c2c(NCCNCCO)ccc(NCCNCCO)c21 [Mitoxantrone, reference compound] | 197 ± 0.6 µM | 37 ± 0.8 µM | 6.62 ± 3.82 µM | 10.7 ± 6.18 µM | – | 57 ± 1 µM | 141 ± 1 µM | – | 22.8 ± 13.1 µM | 2500 ± 1440 µM | – | –
